Tested on: BV-2
Experiment: Antiinflammatory activity in mouse BV2 cells assessed as inhibition of LPS-induced nitric oxide production after 24 hrs by griess assay
Type: functional, cell-based
Settings: BV-2, 24 h

Structure (SMILES) | IC50 [µM]
C=C(C)[C@H](O)[C@H](C[C@@](C)(O)/C=C/c1c(OC)ccc2ccc(=O)oc12)c1c(OC)ccc2ccc(=O)oc12 | 28.9
C=C(C)[C@@H]1O[C@H](C(=C(C)C)c2c(OC)ccc3ccc(=O)oc23)O[C@@H]1c1c(OC)ccc2ccc(=O)oc12 | 37.6
C=C(C)C(O)Cc1c(OC)cc(OC)c2ccc(=O)oc12 (stereo unspecified) | 15.5
C=C(C)[C@H](O)[C@H](OC(=O)CC(C)C)c1c(OC)ccc2ccc(=O)oc12 | 26.4
COc1ccc2ccc(=O)oc2c1C(=O)C(OC(=O)CC(C)C)=C(C)C | 37.6
C=C(C)/C=C/c1c(OC)ccc2ccc(=O)oc12 | 11.8
O=c1c(O)c(-c2ccc(O)c(O)c2)oc2cc(O)cc(O)c12 [QUERCETIN] | 7.2
OC/C=C/c1ccc(O)c(/C=C/[C@@]23CCC(CO)=C[C@H]2c2cc(/C=C/CO)ccc2O[C@H]3O)c1 | > 50
C=C(C)[C@H](OC(=O)CC(C)C)[C@H](O)c1c(OC)ccc2ccc(=O)oc12 | 21.3
OC/C=C/c1ccc(O)c(/C=C/[C@]23CCC(CO)=C[C@H]2c2cc(/C=C/CO)ccc2O[C@H]3O)c1 | 8.6
COc1ccc2ccc(=O)oc2c1/C=C\C(C)=O | 16.9

From ChEMBL document CHEMBL4130612, “Anti-Inflammatory Prenylated Phenylpropenols and Coumarin Derivatives from Murraya exotica” (J Nat Prod, 2018)
